The results in this text go back to US9717775B2 (priority 2006, dated 2017).

One assay concerns the target α9α10 nAChR (Rattus norvegicus, UniProt P43144+Q9JLB5). The class given is cell-based.
In the next assay the test system is α6/α3β4 nAChR. The class given is cell-based, rat.
The test system of the next assay is α6/α3β2β3 nAChR. The format is cell-based, rat.

Chain of α9α10 nAChR (P43144 26-479 limits assumed): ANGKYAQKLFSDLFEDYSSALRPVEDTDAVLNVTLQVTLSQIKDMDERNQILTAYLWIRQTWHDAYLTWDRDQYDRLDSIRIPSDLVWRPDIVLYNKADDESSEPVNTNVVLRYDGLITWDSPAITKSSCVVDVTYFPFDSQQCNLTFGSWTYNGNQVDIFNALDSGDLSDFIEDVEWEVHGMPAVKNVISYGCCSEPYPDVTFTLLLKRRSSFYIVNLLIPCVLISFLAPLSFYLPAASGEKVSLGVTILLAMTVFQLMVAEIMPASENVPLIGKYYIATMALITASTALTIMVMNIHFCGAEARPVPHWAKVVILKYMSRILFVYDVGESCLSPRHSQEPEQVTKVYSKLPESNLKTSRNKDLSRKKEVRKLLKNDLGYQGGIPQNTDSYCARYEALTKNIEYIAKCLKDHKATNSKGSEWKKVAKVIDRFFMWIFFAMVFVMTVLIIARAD
Chain of α9α10 nAChR (Q9JLB5 25-447 limits assumed): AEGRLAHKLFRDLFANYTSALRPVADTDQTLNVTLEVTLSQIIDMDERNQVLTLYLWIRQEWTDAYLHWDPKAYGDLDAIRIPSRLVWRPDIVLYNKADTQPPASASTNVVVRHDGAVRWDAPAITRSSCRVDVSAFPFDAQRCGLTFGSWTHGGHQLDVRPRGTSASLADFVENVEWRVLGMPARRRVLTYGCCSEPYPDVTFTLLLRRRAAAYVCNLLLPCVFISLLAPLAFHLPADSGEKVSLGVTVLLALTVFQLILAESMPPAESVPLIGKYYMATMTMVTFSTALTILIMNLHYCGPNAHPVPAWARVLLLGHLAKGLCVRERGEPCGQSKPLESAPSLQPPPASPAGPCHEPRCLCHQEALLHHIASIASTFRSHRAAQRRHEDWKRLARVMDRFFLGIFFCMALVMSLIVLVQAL

Turning to α-conotoxin Vc1.1 [reference compound], the Hill slope (as a rule, a measure of the steepness of the concentration-response curve) on α9α10 nAChR is 0.702±0.11. The results for the half-maximal inhibitory concentration (IC50) against α9α10 nAChR, in the assay on α6/α3β4 nAChR and in the assay on α6/α3β2β3 nAChR were 22.9 nM, 982 nM and 144 nM, respectively.
